From patent US9187472B2 (AbbVie Inc., priority 2012, dated 2015)

Legend:
NAMPT = NAMPT (Homo sapiens, UniProt P43490); test: TR-FRET Binding Assay of NAMPT with PRPP; conditions: with 200 μM PRPP and 2.5 mM ATP; 2 nM NAMPT, 2 nM probe, 16 hours equilibration
Method in brief: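 Human NAMPT (2 nM) with 2 nM probe and 1 nM Tb-anti-His antibody, plus 200 μM PRPP and 2.5 mM ATP, 2% DMSO. TR-FRET read after 16 h equilibration, permitting possible enzymatic modification of test compounds; data processing as for the substrate-free format.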

[1] = molecular target: NAMPT (human, recombinant, C-terminally His-tagged) (Homo sapiens, UniProt P43490); test: Time-Resolved Fluorescence Resonance Energy Transfer (TR-FRET) Binding Assay of NAMPT; conditions: without substrates; 6.8 nM NAMPT, 200 nM probe, 3 hours equilibration
Method in brief: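 A TR-FRET probe-displacement assay used 6.8 nM His-tagged recombinant human NAMPT, 200 nM Oregon Green 488-labelled nicotinamide-competitive probe and 1 nM Tb-anti-His antibody. Buffer was HEPES pH 7.5 with NaCl, MgCl2, DTT and glycerol, plus 2% DMSO, equilibrated 3 h at room temperature. Em520/Em495 ratios, normalized to controls, gave IC50 by four-parameter logistic fit.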

PC3 cells = test: NAMPT Cell Proliferation Assay; assay type: cell-based; conditions: Homo sapiens, PC-3, 120 h, 5 days incubation, cell viability by Cell Titer Glo
Method in brief: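 Cell Titer Glo viability after 5-day exposure (37° C, 5% CO2); PC3, 500 cells/well, RPMI + 10% heat-inactivated FBS, overnight attachment before dosing. Dose range 10 μM to 1×10^−5 μM, 10-fold steps. IC50 = sigmoidal fit of % inhibition.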

Chain of NAMPT (human, recombinant, C-terminally His-tagged) (P43490 whole entry): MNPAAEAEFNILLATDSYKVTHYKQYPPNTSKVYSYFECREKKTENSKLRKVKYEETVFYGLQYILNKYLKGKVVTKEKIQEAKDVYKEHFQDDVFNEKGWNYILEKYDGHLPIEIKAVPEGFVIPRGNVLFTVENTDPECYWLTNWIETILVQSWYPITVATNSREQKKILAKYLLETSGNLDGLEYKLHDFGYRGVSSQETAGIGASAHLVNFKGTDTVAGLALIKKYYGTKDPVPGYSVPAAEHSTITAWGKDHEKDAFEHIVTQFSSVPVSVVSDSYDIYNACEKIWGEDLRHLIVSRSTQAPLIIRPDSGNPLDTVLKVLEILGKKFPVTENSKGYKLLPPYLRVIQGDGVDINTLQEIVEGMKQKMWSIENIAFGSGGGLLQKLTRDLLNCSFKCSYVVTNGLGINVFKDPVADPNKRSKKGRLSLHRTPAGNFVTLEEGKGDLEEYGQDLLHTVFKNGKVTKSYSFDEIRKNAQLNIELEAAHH
Chain of NAMPT (P43490 whole entry): as above

| IC50 (NAMPT) [nM] | IC50 [1] [nM] | IC50 (PC3 cells) [nM] | SMILES |
| --- | --- | --- | --- |
| 0.67 | 169 | 77.7 | O=C(NCc1ccn2ccnc2c1)Nc1ccc(O[C@@H]2CCN(C(=O)c3ccc(F)cc3)C2)cc1 [Example 691, 1-(4-{[(3R)-1-(4-fluorobenzoyl)pyrrolidin-3-yl]oxy}phenyl)-3-(imidazo[1,2-a]pyridin-7-ylmethyl)urea] |
| 1.19 | 83.9 | 19.8 | O=C(NCc1ccn2ccnc2c1)Nc1ccc(O[C@@H]2CCN(C(=O)c3ccc(F)cc3F)C2)cc1 [Example 692, 1-(4-{[(3R)-1-(2,4-difluorobenzoyl)pyrrolidin-3-yl]oxy}phenyl)-3-(imidazo[1,2-a]pyridin-7-ylmethyl)urea] |
| 1.42 | 781 | 652 | O=C(NCc1ccn2ccnc2c1)Nc1ccc(O[C@@H]2CCN(C(=O)c3ccc(C(F)(F)F)cc3)C2)cc1 [Example 693, 1-(imidazo[1,2-a]pyridin-7-ylmethyl)-3-[4-({(3R)-1-[4-(trifluoromethyl)benzoyl]pyrrolidin-3-yl}oxy)phenyl]urea] |
| 1.12 | 163 | 24.7 | O=C(NCc1ccn2ccnc2c1)Nc1ccc(O[C@@H]2CCN(C(=O)c3cc(F)cc(F)c3)C2)cc1 [Example 694, 1-(4-{[(3R)-1-(3,5-difluorobenzoyl)pyrrolidin-3-yl]oxy}phenyl)-3-(imidazo[1,2-a]pyridin-7-ylmethyl)urea] |
| 0.621 | 13.7 | 5.82 | O=C(NCc1ccn2ccnc2c1)Nc1ccc(O[C@@H]2CCN(C(=O)c3ccccc3Cl)C2)cc1 [Example 695, 1-(4-{[(3R)-1-(2-chlorobenzoyl)pyrrolidin-3-yl]oxy}phenyl)-3-(imidazo[1,2-a]pyridin-7-ylmethyl)urea] |
| 0.725 | 272 | 667 | O=C(NCc1ccn2ccnc2c1)Nc1ccc(O[C@@H]2CCN(C(=O)c3ccc(Cl)cc3)C2)cc1 [Example 696, 1-(4-{[(3R)-1-(4-chlorobenzoyl)pyrrolidin-3-yl]oxy}phenyl)-3-(imidazo[1,2-a]pyridin-7-ylmethyl)urea] |
| 0.802 | 735 | 633 | O=C(NCc1ccn2ccnc2c1)c1cnc(C2CCN(c3ccccn3)CC2)s1 [Example 697, N-(imidazo[1,2-a]pyridin-7-ylmethyl)-2-[1-(pyridin-2-yl)piperidin-4-yl]-1,3-thiazole-5-carboxamide] |
| 0.629 | 36.4 | 0.67 | O=C(NCc1ccn2ccnc2c1)c1ccc(-c2cnn(CC3(F)CCOCC3)c2)s1 [Example 698, 5-{1-[(4-fluorotetrahydro-2H-pyran-4-yl)methyl]-1H-pyrazol-4-yl}-N-(imidazo[1,2-a]pyridin-7-ylmethyl)thiophene-2-carboxamide] |
| 0.721 | 41.1 | 5.27 | O=C(NCc1ccn2ccnc2c1)c1ccc(C2CCN(C(=O)c3ccccc3Cl)CC2)cc1 [Example 699, 4-[1-(2-chlorobenzoyl)piperidin-4-yl]-N-(imidazo[1,2-a]pyridin-7-ylmethyl)benzamide] |
| 1.03 | 68.4 | 3.25 | O=C(NCc1ccn2ccnc2c1)c1ccc(C2CCN(C(=O)c3c(F)cccc3F)CC2)cc1 [Example 700, 4-[1-(2,6-difluorobenzoyl)piperidin-4-yl]-N-(imidazo[1,2-a]pyridin-7-ylmethyl)benzamide] |
| 0.856 | 367 | 76.2 | O=C(NCc1ccn2ccnc2c1)c1ccc(C2CCN(C(=O)c3ccc(F)c(F)c3)CC2)cc1 [Example 701, 4-[1-(3,4-difluorobenzoyl)piperidin-4-yl]-N-(imidazo[1,2-a]pyridin-7-ylmethyl)benzamide] |
| 1.29 | 568 | 88 | O=C(NCc1ccn2ccnc2c1)c1ccc(C2CCN(C(=O)c3cccc(C(F)(F)F)c3)CC2)cc1 [Example 702, N-(imidazo[1,2-a]pyridin-7-ylmethyl)-4-{1-[3-(trifluoromethyl)benzoyl]piperidin-4-yl}benzamide] |

More lines, now with the values behind:

| SMILES | IC50 (NAMPT) [nM] | IC50 [1] [nM] | IC50 (PC3 cells) [nM] |
| --- | --- | --- | --- |
| O=C(NCc1ccn2ccnc2c1)Nc1ccc(-c2cnn(CC3CCOCC3)c2)cc1 [Example 675, 1-(imidazo[1,2-a]pyridin-7-ylmethyl)-3-{4-[1-(tetrahydro-2H-pyran-4-ylmethyl)-1H-pyrazol-4-yl]phenyl}urea] | 2.07 | 376 | 69.8 |
| O=C(NCc1ccc2ncnn2c1)c1ccc(-c2cnn(CC3COCCO3)c2)s1 (stereo not drawn) [Example 676, 5-[1-(1,4-dioxan-2-ylmethyl)-1H-pyrazol-4-yl]-N-([1,2,4]triazolo[1,5-a]pyridin-6-ylmethyl)thiophene-2-carboxamide] | 6.98 | 126 | 78.7 |
| O=C(NCc1ccn2ccnc2c1)c1ccc(C2CCN(C(=O)c3ccccc3F)CC2)s1 [Example 677, 5-[1-(2-fluorobenzoyl)piperidin-4-yl]-N-(imidazo[1,2-a]pyridin-7-ylmethyl)thiophene-2-carboxamide] | 0.796 | 1.77 | 0.613 |
| CC(C)(C)OC(=O)N1CCC(c2ccc(C(=O)NCc3cn4ccnc4cn3)cc2)CC1 [Example 678, tert-butyl 4-{4-[(imidazo[1,2-a]pyrazin-6-ylmethyl)carbamoyl]phenyl}piperidine-1-carboxylate] | 0.23 | 41.2 | 15.1 |
| O=C(CC1CCCC1)Nc1ccc(C(=O)NCc2cn3ccnc3cn2)cc1 [Example 679, 4-[(cyclopentylacetyl)amino]-N-(imidazo[1,2-a]pyrazin-6-ylmethyl)benzamide] | 1.74 | 22.8 | 10.9 |
| CC(C)(C)OC(=O)N1CCC(c2ccc(NC(=O)NCc3cn4ccnc4cn3)cc2)CC1 [Example 680, tert-butyl 4-(4-{[(imidazo[1,2-a]pyrazin-6-ylmethyl)carbamoyl]amino}phenyl)piperidine-1-carboxylate] | 2.38 | 37.1 | 629 |
| O=C(CC1CCCC1)Nc1ccc(NC(=O)NCc2cn3ccnc3cn2)cc1 [Example 681, 2-cyclopentyl-N-(4-{[(imidazo[1,2-a]pyrazin-6-ylmethyl)carbamoyl]amino}phenyl)acetamide] | 2 | 27.6 | 145 |
| O=C(NCc1ccn2ccnc2c1)c1ccc(C2CCN(S(=O)(=O)c3ccccc3)CC2)cc1 [Example 682, N-(imidazo[1,2-a]pyridin-7-ylmethyl)-4-[1-(phenylsulfonyl)piperidin-4-yl]benzamide] | 1.58 | 607 | 771 |
| CC(C)S(=O)(=O)N1CCC(c2ccc(C(=O)NCc3ccn4ccnc4c3)cc2)CC1 [Example 683, N-(imidazo[1,2-a]pyridin-7-ylmethyl)-4-[1-(propan-2-ylsulfonyl)piperidin-4-yl]benzamide] | 1.19 | 154 | 36.1 |
| O=C(NCc1ccn2ccnc2c1)c1ccc(C2CCN(S(=O)(=O)C3CC3)CC2)cc1 [Example 684, 4-[1-(cyclopropylsulfonyl)piperidin-4-yl]-N-(imidazo[1,2-a]pyridin-7-ylmethyl)benzamide] | 1.34 | 481 | 320 |
| CC(C)C[C@@H](NC(=O)C1CC1)c1ccc(C(=O)NCc2ccn3ccnc3c2)s1 [Example 685, 5-{(1R)-1-[(cyclopropylcarbonyl)amino]-3-methylbutyl}-N-(imidazo[1,2-a]pyridin-7-ylmethyl)thiophene-2-carboxamide] | 1.36 | 1250 | 74 |
| CC(C)C[C@@H](NC(=O)CC1CCOC1)c1ccc(C(=O)NCc2ccn3ccnc3c2)s1 (stereo partly drawn) [Example 686, N-(imidazo[1,2-a]pyridin-7-ylmethyl)-5-{(1R)-3-methyl-1-[(tetrahydrofuran-3-ylacetyl)amino]butyl}thiophene-2-carboxamide] | 1.3 | 959 | 77.2 |
| CC(C)C[C@H](NC(=O)C1CC1)c1ccc(C(=O)NCc2ccn3ccnc3c2)s1 [Example 687, 5-{(1S)-1-[(cyclopropylcarbonyl)amino]-3-methylbutyl}-N-(imidazo[1,2-a]pyridin-7-ylmethyl)thiophene-2-carboxamide] | 1.16 | 97.3 | 2.19 |
| O=C(NCc1ccn2ccnc2c1)c1cnc(C2CCN(c3ccccc3)CC2)s1 [Example 688, N-(imidazo[1,2-a]pyridin-7-ylmethyl)-2-(1-phenylpiperidin-4-yl)-1,3-thiazole-5-carboxamide] | 2.66 | 1110 | 5480 |
| O=C(NCc1ccn2ccnc2c1)Nc1ccc(O[C@@H]2CCN(C(=O)c3ccccc3F)C2)cc1 [Example 689, 1-(4-{[(3R)-1-(2-fluorobenzoyl)pyrrolidin-3-yl]oxy}phenyl)-3-(imidazo[1,2-a]pyridin-7-ylmethyl)urea] | 1.32 | 16 | 7.21 |
| O=C(NCc1ccn2ccnc2c1)Nc1ccc(O[C@@H]2CCN(C(=O)c3cccc(F)c3)C2)cc1 [Example 690, 1-(4-{[(3R)-1-(3-fluorobenzoyl)pyrrolidin-3-yl]oxy}phenyl)-3-(imidazo[1,2-a]pyridin-7-ylmethyl)urea] | 1.22 | 64.3 | 13.8 |
